Article PMC6862289, “Metabolic Profile, Bioavailability and Toxicokinetics of Zearalenone-14-Glucoside in Rats after Oral and Intravenous Administration by Liquid Chromatography High-Resolution Mass Spectrometry and Tandem Mass Spectrometry” (International Journal of Molecular Sciences, 2019)
Like-named read-outs stand apart in the source and are kept apart here.

What was measured:
[1] = broiler chickens; cited from earlier work
[2] = pigs; cited from earlier work
[3] = Toxicokinetics of ZEN-14G in rats after oral and intravenous administration (plasma LC-MS/MS, non-compartmental analysis); assay type: in vivo, Wistar rats; settings: for level detected in plasma after oral administration of ZEN-14G: p.o. ZEN-14G 0.75 mg/kg, Figure 3A; for k el: mean ± SD, n = 12, read-out: λZ (elimination rate constant) (converted); for AUC(0-inf): read-out: AUC0-infinity; for half-life: read-out: Elimination t1/2 (converted); for amount observed in plasma after intravenous administration of ZEN-14G: i.v. ZEN-14G 0.75 mg/kg, Figure 3D
Method: The validated LC-MS/MS method was eligible for the toxicokinetic characterization of ZEN-14G in rats. The obtained data (above the LOQ) were analyzed via non-compartmental analysis using WinNonlin 6.3 software (Pharsight Co. Mountain View, CA, USA). The area under the plasma concentration–time curve (AUC) was obtained using the trapezoidal rule with extrapolation to infinity. […] The half-life period of ZEN in pigs was much longer than ZEN-14G in rats, which may be attributed to enterohepatic circulation. […] The low absolute bioavailability of ZEN-14G might be due to the deglycosylation of ZEN-14G to ZEN. The CL and VZ are extremely different between oral (p.o.) and intravenous (i.v.) administration. The VZ depends on the total mass absorbed and the plasma concentration. For oral administration, the low plasma concentration of ZEN-14G may because ZEN-14G appeared to be distributed into a very large volume or rapidly biotransformed into other compounds. The low oral bioavailability and low plasma concentration of ZEN-14G led to the […] VZ than that of i.v. administration. […] CL is the volume of blood from which a compound is removed per unit time. In comparison with p.o., much more of ZEN-14G was absorbed in the plasma after intravenous injection (i.v.)—more volume of blood cleared of ZEN-14G per unit time.
ZEN-14G was dissolved in aqueous solution containing 0.5% carboxymethyl cellulose. We selected twelve Wistar rats (half male and half female, with an average weight of 180 g, obtained from Vital River Laboratory Animal Technology Co. Ltd (Beijing, China). The rats were raised for one week for acclimation before the experiment, and the rats went through a 12 h fast before dosing. Six rats were treated with ZEN-14G via oral gavage at a dosage of 0.75 mg/kg body weight followed by blood collection at 0.083, 0.16, 0.25, 0.5, 0.75, 1.0, 1.5, 2, 4, and 6 h post administration while the other six rats were administered with the same amount of ZEN-14G intravenously and the blood samples were collected at the same time points. After a one-week withdrawal period, a crossover design was used for the following experiment where the rats administered orally would receive intravenous administration and vice versa. […] All the animal experiments complied with the National Institutes of Health guide for the care and use of laboratory animals, which has been approved on 20 March 2018 by the ethical committee of China Agricultural University (Beijing, China) (2018-SYXK-0238).
We extracted 100 μL of plasma using 100 μL of acetonitrile followed by centrifugation for 5 min at 14,000× g at 4 °C. This analytical method was established based on the published literature. The supernatant was gathered, evaporated until dry and eventually re-dissolved in 100 μL of 15% acetonitrile. This analytical method was soundly validated in plasma before application.
The separation and identification of ZEN-14G and its metabolites were performed on a Phenomenex column (Kinetex 50 mm × 2.1 mm i.d. 1.7 μm particle size, C18) using an ultra-high-performance liquid chromatograph (Agilent 1260 Infinity) coupled to a triple quadrupole mass spectrometer (Agilent 6495) under negative ESI mode (Agilent Technologies, Palo Alto, CA, USA). The chromatographic separations were achieved through a gradient elution program. Mobile phase A was water containing 0.1% formic acid, and phase B was acetonitrile containing 0.1% formic acid. The gradient elution program for phase B was listed as: 0–1 min, 0%–15%; 1–2 min, 15%–45%; 2–4 min, 45%–90%; 4–5 min, 90%; 5–5.1 min, 90%–15%; and 5.1–6.0 min, 15%. The key parameters for the mass spectrometer were as follows: capillary voltage (3.5 kV); gas temperature (250 °C); gas flow (11 L/min); nebulizer (45 psi); sheath gas temperature (350 °C); and sheath gas flow (12 L/min). Furthermore, the detailed information on precursor ions and the product ions of ZEN-14G and quantifiable products are described in Table S1. […]

[4] = female pigs; cited from earlier work
[5] = poultry; cited from earlier work
[6] = rats; cited from earlier work
estrogenic receptors = test system: estrogenic receptors; parameters: method as in PMID 32625539; settings: compared with ZEN; cited from earlier work
[7] = both sexes, Wistar, rat, in vivo, iv, 0.75 mg/kg body weight
[8] = both sexes, Wistar, rat, in vivo, po, 0.75 mg/kg body weight

For `CC1=C[C@H]2O[C@@H]3[C@H](O[C@@H]4O[C@H](CO)[C@@H](O)[C@H](O)[C@H]4O)C[C@](C)([C@@]2(CO)[C@H](O)C1=O)[C@]31CO1` [DON-3G, deoxynivalenol-3-β-D-glucoside], which absolute oral bioavailability [1] is on record?
Its absolute oral bioavailability is 3.79%.

What about the absolute oral bioavailability [2] of the same compound?
The absolute oral bioavailability was 16.1%.

Which results are given for `C[C@H]1CCCC(=O)CCC/C=C/c2cc(O)cc(O)c2C(=O)O1` [ZEN, Zearalenone]?
yield of ZEN in plasma relative to that of ZEN-14G ([3]; after i.v. ZEN-14G 0.75 mg/kg body weight): approximately 4.5 times; level detected in plasma after oral administration of ZEN-14G [3]: trace level; absolute oral bioavailability [4]: around 51.5%; oral bioavailability [5]: 10%; oral bioavailability [6]: 10%

Which results are given for `CC1CCCC(=O)CCC/C=C/c2cc(OC3OC(CO)C(O)C(O)C3O)cc(O)c2C(=O)O1` (stereo not drawn) [ZEN-14G, Zearalenone-14-glucoside]?
visible adverse phenomena ([3]; 0.75 mg/kg body weight, any route of administration (p.o., i.v.)): No visible adverse phenomena; bioavailability ([3]; both sexes, Wistar, rat, in vivo, 0.75 mg/kg, AUC oral / AUC intravenous × 100%, 0.75 mg/kg body weight, read-out: F (absolute oral bioavailability)): ~9%; AUC(0-t) [3, 7]: 1.79 ± 0.03 ng·h/mL; k el [3, 7]: 0.000883 s⁻¹; AUC(0-inf) [3, 7]: 1.8 ± 0.02 ng·h/mL; half-life [3, 7]: 13.2 ± 1.8 min; MRT ([3]; both sexes, Wistar, rat, in vivo, iv, 0.75 mg/kg, i.v., 0.75 mg/kg body weight, read-out: MRT (mean residence time)): 12 ± 1.8 min; Vd ([3]; both sexes, Wistar, rat, in vivo, iv, 0.75 mg/kg, i.v., 0.75 mg/kg body weight, read-out: VZ (apparent volume of distribution)): 7.25 ± 1.23 L/kg; Vd ([3]; both sexes, Wistar, rat, in vivo, iv, 0.75 mg/kg, i.v., 0.75 mg/kg body weight, read-out: VZ (apparent volume of distribution), as printed in text): 87.2 L/kg; AUC(0-t) [3, 8]: 0.11 ± 0.03 ng·h/mL; Cmax [3, 8]: 0.2 ± 0.03 ng/mL; Tmax [3, 8]: 4.98 ± 0.6 min; k el [3, 8]: 0.0002 s⁻¹; AUC(0-inf) [3, 8]: 0.16 ± 0.02 ng·h/mL; CL/F ([3]; both sexes, Wistar, rat, in vivo, po, 0.75 mg/kg body weight, read-out: CL (apparent total body clearance) (converted)): 4.5 L/h/kg; half-life [3, 8]: 57.6 ± 4.2 min; CL (apparent total body clearance) ([3]; i.v., 0.75 mg/kg body weight): 5.02 ± 0.62 L/h/kg; VZ (apparent volume of distribution) ([3]; p.o., 0.75 mg/kg body weight): 6.24 ± 0.73 L/kg; time point of the peak concentration ([3]; p.o., first time point): 5 min; estrogenic potency (estrogenic receptors): comparable to that of ZEN

Which “amount observed in plasma after intravenous administration of ZEN-14G” value [3] does the source give for `CC1CCC[C@H](O)CCC/C=C/c2cc(O)cc(O)c2C(=O)O1` (stereo partly drawn) [α-ZEL, α-zearalenol] here?
Its value is “small amount”.

What about the “level detected in plasma after oral administration of ZEN-14G” value [3] of the same compound?
The value was “trace level”.

For `CC1CCC[C@H](O)CCC/C=C/c2cc(OC3OC(CO)C(O)C(O)C3O)cc(O)c2C(=O)O1` (stereo partly drawn) [α-ZEL-14G], which “amount observed in plasma after intravenous administration of ZEN-14G” value [3] is on record?
Its value is “small amount”.
